Assay results reported in patent US20120071493A1, “SUBSTITUTED 8-SULFONYL-2,3,4,5-TETRAHYDRO-1H-GAMMA-CARBOLINES, LIGANDS AND PHARMACEUTICAL COMPOSITION; METHOD FOR THE PRODUCTION AND USE OF SAME” (priority 2009, published 2012).

Legend:
[1] = system: animals as in example 18.1.1; test: Passive avoidance, memory disturbed by MK-801; type: in vivo, mice; details: 0.2 mg/kg and 1 mg/kg intraperitoneally before training; MK-801 0.1 mg/kg
mice [2] = test: Mice Training in the Morris Water maze, Scopolamine memory impairment; type: in vivo; details: intraperitoneally 35-40 minutes before training, with Scopolamine
Protocol: Mice Training in the Morris Water maze. A round pool filled with water at 20-22° C. was used. There was a round ceramic platform of 14 cm height in the pool. Animals's (mice) behavior was registered with an automated computer video system in combination with software package of movement analysis Any-maze (Stoelting Co., CIIIA). Selection of mice suitable for training was carried out before the experiments. For this purpose the platform was placed 1 cm above the water level and an animal was put on the platform for 20 seconds. Then the mouse was sunk into the water on the opposite side of the pool, allowed to find the platform and climb it for 60 seconds, where it was left for 20 seconds. After that the mouse was repeatedly immersed into water on the opposite side of the pool and allowed to find the platform. If it failed in finding the platform within 60 seconds the experimentator helped it to find the platform and climb it. If the mice couldn't find the platform itself in two consecutive attempts it was excluded from the experiment. During the next two days the platform was placed 0.5 cm lower the water level. Every day the mice were given four attempts for finding the platform within 60 seconds. The time interval between the attempts was 20 seconds, during which the mice stayed on the platform. Every day before the first attempt the mice was placed on the platform for 20 seconds. […]

male mice of BALB/c line = test: Mice Behavior in the Elevated Plus Maze test; type: in vivo; details: 0.05 mg/kg and 0.2 mg/kg intraperitoneally
Protocol: The experiments were carried out in aged male mice of BALB/c line weighing about 25 g. Animals were housed 5-7 per cage with water and food available. None of animals was acquainted with experimental set-up before. Each experimental group included 8 animals.
The procedure used was described earlier by Lister (Lister R. G. The use of a plus-maze to measure anxiety in the mouse. Psychopharmacology, 1987; 92:180-185). Plexiglass set-up consisted of two opened arms of 30×5 cm size and two closed arms of 30×5×15 cm size was used. Side arms were closed with transparent plexiglass and were connected with central zone via platform of 5×5 cm size. Opened arms, central platform and floor were made of black plexiglass. The set-up was mounted on a metallic base which was placed 38.5 cm above floor level.
Animals were injected intraperitoneally with placebo, Buspirone (5 mg/kg, 30 minutes before training), Lorazepam (0.05 mg/kg, 60 minutes before training) or with one of the compounds of the general formula 1, for example, compound 1.1.1(4).HCl or compound 1.2.1(3).HCl in doses 0.05 mg/kg and 0.2 mg/kg. Buspirone and Lorazepam were introduced in maximal effective dose, at which side sedative effect and general decrease of exploratory activity (number of arm entries during the test) were not observed yet.
Each mouse was placed in maze center with its head towards the opened arm. Over a period of 5 minutes the sequence and duration of arm entries were registered by means of computer program. Criterion for entry is location of all animal's paws inside the arm at the same time. Index of preference was calculated as ratio of the time spent by animal in opened arms as well as the number of entries into opened arms to the total time spent by it in opened and closed arms or, respectively, to the whole number of entries to arms of both types. The number of defecations left by mouse was regarded as additional parameter characterizing anxiety state.

[3] = system: 31 receptors (alpha-adrenoceptors, dopamine, histamine, imidazoline, sigma, norepinephrine and serotonin receptors); test: Displacement of radio-labelled ligands from 31 receptors (MDS Pharma Services); type: binding
Protocol: The interaction was estimated by the displacement of radio-labeled […] from their complex with the corresponding receptors by compound 1.1.1(4).HCl at its concentration of 10 mkM. […] The interaction was estimated by the displacement of radio-labeled […] from their complex with the corresponding receptors by compound 1.2.1(3).HCl at its concentration of 1 mkM. […] All radio-labelled experiments were carried out by MDS Pharma Services firm ([…].com/Services, Taipei, Taiwan) according to their protocols. Estimation of the results obtained is indicative of wide range of pharmacological activity of γ-carbolines of the general formula 1 towards alpha-adrenoceptors, dopamine receptors, histamine receptors, imidazoline receptors, sigma receptors, norepinephrine receptors and serotonin receptors.

male mice of SHK line = test: Novel Object Recognition test, Scopolamine-disturbed recognition; type: in vivo; details: 0.05 mg/kg and 0.2 mg/kg intraperitoneally 30 minutes before training; Scopolamine 1 mg/kg
Protocol: The test was carried out in aged male mice of SHK line. Plexiglass plus maze, consisted of 4 dead-end chambers (numbered 1, 2, 3, 4), joined together through the fifth central chamber, was used in experiments. Mouse was placed into central chamber and allowed to explore the maze. Floor was cleaned after each animal. The sequence of chamber entries and duration of visits were registered by observer. Test was ended after 13 entries into dead-end chambers. Criterion for entry was location of all animal's paws inside the chamber at the same time.
During the training an animal was placed in the maze with one equiform bowl in each side chamber. In the course of testing (one hour after training) two opposite standing bowls were replaced by identical flasks, and animal was allowed to explore the maze. The time spent by animal in each side chamber was registered during the periods of training and testing. Index of novel object recognition was calculated as ratio of time spent by animal in side chambers with novel objects to the total time spent by it in all side chambers. In comparison with the training phase the appearance of novel object extends the time spent by animal in the chamber with novel object (so-called effect of novel object recognition). The recognition of novel objects was disturbed under action of Scopolamine administered in 1 mg/kg dose intraperitoneally 30 minutes before training, and recognition index was decreased.

mice [4] = test: Tail suspension test; type: in vivo; details: injected for 4 days in doses of 0.05 mg/kg; 6 minutes test
Protocol: Mice behavior in tail suspension test. Mice were suspended by tail with scotch tape on holder over horizontal surface at a height of about 40 cm, and for 6 minutes the total duration of complete immobility episodes which is considered to be a measure of depressively-like state was registered. Automated computerized detection of motion with videosystem and Any-maze programm were used in test. […] This testifies the decreasing of time of a depressively-like state.

% of radio-labelled ligands displacement ([3]; at 13 of 31 receptors, compound at 10 mkM, FIG. 1) [%] | number of receptors the compound actively interacts with (displacement >60%) ([3]; of 31 receptors, compound at 10 mkM, FIG. 1) | interaction with 31 receptors (displacement of radio-labelled ligands) ([3]; FIG. 2, compound at 1 mkM per figure legend) | Structure (SMILES) | effect on amnesia caused by MK-801, passive avoidance [1] | effect on memory impairment caused by Scopolamine, Morris water maze (mice [2]) | anxiolytic effect in elevated plus maze (male mice of BALB/c line) | prevention of Scopolamine influence on novel object recognition (male mice of SHK line) | duration of mice complete immobility (mice [4])
> 60 | 13 |  | CN1CCc2c(c3cc(S(=O)(=O)c4ccccc4)ccc3n2C)C1.Cl [1.1.1(4)•HCl, 2,5-dimethyl-8-(phenylsulfonyl)-2,3,4,5-tetrahydro-1H-γ-carboline hydrochloride] | decrease amnesia caused by MK-801 markedly | decreasing of memory impairment | well-marked anxiolytic effect | could be prevented | decreased significantly
 |  | Analogous results | CN1CCc2[nH]c3ccc(S(=O)(=O)Nc4cccc(F)c4)cc3c2C1.Cl [1.2.1(3)•HCl, 2-methyl-2,3,4,5-tetrahydro-1H-γ-carboline-8-sulfonic acid 3-fluorophenyl amide hydrochloride] | analogous effect | decreasing of memory impairment | well-marked anxiolytic effect | could be prevented | decreased significantly
